PMC3834731 (International journal of antimicrobial agents, 2013)
Marks after values point to notes of the source that are not given here.

Experiments:
Brucella suis 1330 = type: cell-based
[1] = tested on: B. suis in J774A.1 murine macrophage-like cells; type: cell-based, Brucella suis
Brucella melitensis 16M = type: cell-based
Brucella abortus 2308 = type: cell-based

Row | Substance | Log CFU/100 μL/well (Brucella suis 1330) | Log reduction (Brucella suis 1330) | inhibition of growth of B. suis in culture (in words) (Brucella suis 1330) | Log CFU [1] [Log CFU] | Log reduction [1] | inhibition of intracellular B. suis (in words) [1] | Log CFU/mL (Brucella suis 1330) [Log CFU/mL] | effectiveness against B. melitensis 16M (in words) (Brucella melitensis 16M) | effectiveness against B. abortus 2308 (in words) (Brucella abortus 2308)
1 | H-KFFKFFKFFK-O-catactcttcct-NH2 [Anti-lacZ, reference compound] | 2.83 ± 0.13 Log CFU/100 μL/well | 0.23 | did not inhibit the growth | 3.45 ± 0.31 | +0.17 | – | – | – | –
2 | H-KFFKFFKFFK-O-catatcgtcgga-NH2 [gyrA] | 3.92 ± 0.06 Log CFU/100 μL/well | 0.23 | not in Brucella cultures | 2.47 ± 0.51 | 0.81 ^* | showed significant inhibition | – | – | –
3 | H-KFFKFFKFFK-O-catcgtcgctc –NH2 [rpoB] | 0 ^* Log CFU/100 μL/well | – | significantly inhibited the growth | – | – | – | 0 | – | –
4 | H-KFFKFFKFFK-O-cattacagatt-NH2 [dnaG] | 2.91 ± 0.02 Log CFU/100 μL/well | 0.15 | not in Brucella cultures | 1.78 ± 0.56 | 1.50 ^* | showed significant inhibition | – | – | –
5 | H-KFFKFFKFFK-O-cattgtgtcgc-NH2 [tsf] | 1.02 ± 0.92 Log CFU/100 μL/well | 2.04 ^* | significantly inhibited the growth | – | – | – | – | – | –
6 | H-KFFKFFKFFK-O-catttttcgtct-NH2 [asd] | 3.27 ± 0.09 Log CFU/100 μL/well | – | not in Brucella cultures | 1.84 ± 0.50 | 1.44 ^* | showed significant inhibition | – | – | –
7 | H-KFFKFFKFFK-O-ctcatgtcgg-NH2 [acpP] | 3.05 ± 0.10 Log CFU/100 μL/well | 0.01 | – | 3.37 ± 0.18 | +0.09 | – | – | – | –
8 | H-KFFKFFKFFK-O-gctcatttcgc-NH2 [kdtA] | 1.56 ± 1.10 Log CFU/100 μL/well | 1.50 ^* | significantly inhibited the growth | – | – | – | – | – | –
9 | H-KFFKFFKFFK-O-ttcatgcctgt-NH2 [polA] | 0.54 ± 0.09 Log CFU/100 μL/well | – | significantly inhibited the growth | 2.27 ± 0.69 | 1.01 ^* | showed significant inhibition | – | effective | effective
